Experimental data: US4293713A, “Novel 1,1,3,5-substituted biuret compound and a pharmaceutical composition containing the same” (priority 1979, dated 1981)
Read-outs that look alike come from different tables or passages of the source.

What was measured:
ddy strain of male mice [1] = assay: Analgesic activity, Haffner method; type: in vivo, mouse (ddy strain; settings: with threshold morphine hydrochloride s.c.; for Analgesic activity, Haffner method, inhibitory ratio: 100 mg/kg oral; for Analgesic activity, Haffner method, 50% effective dose, ED50 (values with Δ marks): oral, range in parentheses
Protocol: (§1) Next, several tests for determining the pharmacological properties, in that acute toxicity, anti-pyretic activity, analgesic activity and anti-inflammatory activity of the present 1,1,3,5-substituted biuret compounds of the formula (1) were conducted and the test results are shown in Table (2). In the tests, each compounds to be tested was used as a suspension in 0.25% carboxymethylcellulose solution. Methods for testing are explained as follows:
According to the modified method reported by Fujimura et al., [Bulletin of the Institute for Chemical Research, Kyoto University, No. 25, pp. 36 (1951)], the ddy strain of male mice (body weight, 20-25 g) were used as test animals. The mice were fasted overnight, 100 mg/kg body weight of the test compound was administered orally, then 45 minutes after the administration, the threshold amount (1.5-2.5 mg/kg body weight) of morphine hydrochloride was injected subcutaneously. Then 1-hour pain reaction of the mouse caused by a clamp was observed. Analgesic activity of the test compound was calculated as the inhibitory ratio (%). In Table 2, the values in parentheses show the data obtained from the test by using the dosage other than 100 mg/kg body weight. Further, the values indicated with Δ marks show 50% effective dose, ED50 (mg/kg body weight).

[2] = test system: Wistar strain of male rats; assay: Anti-pyretic activity (dry-yeast induced fever); type: in vivo, rat (Wistar strain; settings: oral, up to 4 hours after administration, dose not given
Protocol: as §1
According to the method reported by Tanabe [Folia Pharmacologia Japonica, Vol. 73, pp. 803 (1977)], the Wistar strain of male rats (150-180 g body weight) were used as test animals. The rats were fasted overnight, and 1 ml/100 g (body weight) of 10% dry-yeast suspension were subcutaneously injected on the back of the rats. Five hours after the injection, the test compound was administered orally, then the body temperature of the rat was measured at time sequences. Anti-pyretic activity of the test compound was determined as the FI (febril index) by integrating pyrogenetic curve up to 4 hours after the administration of the test compound with time, and indicated as inhibitory ratio (%) shown by the following formula, [formula]

ddy strain of male mice [3] = assay: Acute toxicity (oral, 7 days observation); type: in vivo; settings: oral, mice, 7 days
Protocol: as §1
The ddy strain of male mice (body weight, 20-25 g) were used as test animals. The mice were fasted overnight and the compound to be tested was administered orally. […] The lethal dose (mg/kg, body weight) of the test compound was determined in connection with the death number of mice/the number of mice tested. In Table 2, the values indicated with Δ marks are 50% lethal dose, LD50 (mg/kg, body weight).

ddy strain of male mice [4] = assay: Analgesic activity, acetic acid-induced stretching method; type: in vivo, mouse (ddy strain; settings: Mus musculus; for ED50: read-out: Analgesic activity, acetic acid-induced stretching method, 50% effective dose, ED50 (values with Δ marks)
Protocol: as §1
According to the method reported by Koster et al., [Fed. Proc., Vol. 18, pp. 412 (1959)], the ddy strain of male mice (body weight, 20-25 g) were used as test animals. The mice were fasted overnight, 100 mg/kg body weight of the test compound was administered orally, then 1 hour after the administration, 0.2 ml of 0.7% acetic acid solution was injected intraperitoneally. The acetic acid-induced stretching symptom of mouse was observed. Analgesic activity of the test compound was calculated as the inhibitory ratio (%). In Table 2, the values in Parentheses show the data obtained from the test by using the dosage other than 100 mg/kg body weight. Further, the values indicated with Δ marks show 50% effective dose, ED50 (mg/kg body weight).

[5] = test system: Wistar strain of male rats; assay: Anti-inflammatory activity, acute carrageenin-induced inflammatory test; type: in vivo, rat (Wistar strain; settings: Rattus norvegicus
Protocol: as §1
According to the method of acute carrageenin-induced inflammatory test [Folia Pharmacologia Japonica, Vol. 56, pp. 575 (1960)], the Wistar strain of male rats (body weight, 150-180 g) were used as test animals. The rats were fasted overnight, 100 mg/kg body weight of the test compound was administered orally, then 1 hour after the administration, 0.1 ml of 1% carrageenin solution, as the inflammation inducing agent, was injected subcutaneously to the hindpaw of the rat and the volume of the hindpaw was measured at time sequences. Anti-inflammatory activity of the test compound was calculated as inflammation inhibitory ratio (%) at 3 hours after the injection of the inflammation inducing agent.

[6] = po, read-out: Analgesic activity, acetic acid-induced stretching method, inhibitory ratio
[7] = 100 mg/kg oral, rats, 3 hours after carrageenin, read-out: Anti-inflammatory activity, inflammation inhibitory ratio
[8] = po, 3 h, read-out: Anti-inflammatory activity, inflammation inhibitory ratio
[9] = po, 2 h, read-out: Anti-inflammatory activity, inflammation inhibitory ratio (2 hours value)
[10] = 100 mg/kg oral, rats, 2 hours value, read-out: Anti-inflammatory activity, inflammation inhibitory ratio (2 hours value)
[11] = 100 mg/kg oral, mice, read-out: Analgesic activity, acetic acid-induced stretching method, inhibitory ratio

SMILES	Analgesic activity, Haffner method, inhibitory ratio (ddy strain of male mice [1]) [%]	Anti-pyretic activity, inhibitory ratio of febril index (FI) [2] [%]	Acute toxicity, death number of mice/number of mice tested (ddy strain of male mice [3]; 1000 mg/kg)	Acute toxicity, death number of mice/number of mice tested (ddy strain of male mice [3]; 2000 mg/kg)	inhibition in vivo at 100 mg/kg (ddy strain of male mice [4]; [6]) [%]	inhibition in vivo at 100 mg/kg [5, 7] [%]	Acute toxicity, death number of mice/number of mice tested (ddy strain of male mice [3]; 500 mg/kg)	ED50 (ddy strain of male mice [4]; oral, mice, range in parentheses) [mg/kg]	inhibition in vivo at 100 mg/kg [5, 8] [%]	Analgesic activity, Haffner method, 50% effective dose, ED50 (values with Δ marks) (ddy strain of male mice [1])	ED50 (ddy strain of male mice [4]; po) [mg/kg]	inhibition in vivo at 100 mg/kg [5, 9] [%]	inhibition in vivo at 60 mg/kg (ddy strain of male mice [4]; [6]) [%]	inhibition in vivo at 100 mg/kg [5, 10] [%]	inhibition in vivo at 100 mg/kg (ddy strain of male mice [4]; [11]) [%]
CN(C)C(=O)N(C)C(=O)Nc1ccccc1F [Compound No. 2, 1,1,3-Trimethyl-5-(2-fluorophenyl)biuret]	75	76	1/4	4/4	62.5	63	–	–	–	–	–	–	–	–	–
COc1cc(NC(=O)N(C)C(=O)N(C)C)cc(OC)c1OC [Compound No. 19, 1,1,3-Trimethyl-5-(3,4,5-trimethoxyphenyl)biuret]	62.5	23	2/4	–	–	–	0/4	38	30	–	–	–	–	–	–
Cc1ccc(NC(=O)N(C)C(=O)N(C)C)cc1 [Compound No. 22, 1,1,3-Trimethyl-5-(4-methylphenyl)biuret]	–	52	–	0/4	–	–	–	–	–	80(42-152) mg/kg	33	23	–	–	–
CCCN(C)C(=O)N(C)C(=O)Nc1ccccc1 [Compound No. 34, 1,3-dimethyl-1-propyl-5-phenylbiuret]	37.5	44	1/4	4/4	–	–	–	–	–	–	–	26	75	–	–
CN(C)C(=O)N(C)C(=O)Nc1c(F)c(F)cc(F)c1F [compound 4, 1,1,3-Trimethyl-5-(2,3,5,6-tetrafluorophenyl)-biuret]	50	33	4/4	–	87.5	–	0/4	–	24	–	–	–	–	–	–
CN(C)C(=O)N(C)C(=O)Nc1ccccc1Cl [compound 5, 1,1,3-Trimethyl-5-(2-chlorophenyl)biuret]	37.5	66	–	0/4	50	38	–	–	–	–	–	–	–	–	–
CN(C)C(=O)N(C)C(=O)Nc1ccccc1C(F)(F)F [compound 12, 1,1,3-Trimethyl-5-(2-trifluoromethylphenyl)biruet]	37.5	65	1/4	–	12.5	–	–	–	66	–	–	–	–	–	–
CN(C)C(=O)N(C)C(=O)Nc1cccc(C(F)(F)F)c1 [compound 13, 1,1,3-Trimethyl-5-(3-trifluoromethylphenyl)biuret]	–	62	0/4	4/4	37.5	–	–	–	–	64(37-112) mg/kg	–	32	–	–	–
CN(C)C(=O)N(C)C(=O)Nc1ccc(N(C)C)cc1 [compound 14, 1,1,3-Trimethyl-5-(4-dimethylaminophenyl)biuret]	50	26	–	0/4	62.5	–	–	–	–	–	–	–	–	32	–
CN(C)C(=O)N(C)C(=O)Nc1ccc([N+](=O)[O-])cc1 [compound 15, 1,1,3-Trimethyl-5-(4-nitrophenyl)biuret]	50	26	–	–	–	–	2/4	–	32	–	–	–	–	–	100
COc1ccccc1NC(=O)N(C)C(=O)N(C)C [compound 16, 1,1,3-Trimethyl-5-(2-methoxyphenyl)biuret]	25	13	0/4	2/4	37.5	–	–	–	–	–	–	–	–	35	–
Cc1cccc(NC(=O)N(C)C(=O)N(C)C)c1 [compound 21, 1,1,3-Trimethyl-5-(3-methylphenyl)biuret]	37.5	31	–	2/4	75	–	–	–	28	–	–	–	–	–	–
CC(=O)c1ccc(NC(=O)N(C)C(=O)N(C)C)cc1 [compound 27, 1,1,3-Trimethyl-5-(4-acetylphenyl)biuret]	37.5	36	4/4	–	–	–	0/4	–	–	–	–	31	–	–	62.5
CCN(C(=O)Nc1ccccc1)C(=O)N(C)C [compound 30, 1,1-Dimethyl-3-ethyl-5-phenylbiuret]	–	12	0/4	3/4	62.5	–	–	–	23	–	–	–	–	–	–
